These results are taken from article PMC6919601, “Identification of Plasmodium dipeptidyl aminopeptidase allosteric inhibitors by high throughput screening” (PLoS ONE, 2019).

Each structure is given as a SMILES string.

The assay concerns the target T1, DPAP1 (Plasmodium falciparum, UniProt Q8IIJ9).
T1 sequence (Q8IIJ9 370-599 limits assumed): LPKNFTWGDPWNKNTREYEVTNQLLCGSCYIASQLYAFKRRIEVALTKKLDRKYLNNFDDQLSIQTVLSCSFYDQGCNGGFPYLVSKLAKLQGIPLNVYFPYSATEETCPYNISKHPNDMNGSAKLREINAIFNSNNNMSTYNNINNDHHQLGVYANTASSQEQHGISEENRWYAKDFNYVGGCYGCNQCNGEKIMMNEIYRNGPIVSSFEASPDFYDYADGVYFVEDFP
T1 sequence (Q8IIJ9 28-209 limits assumed): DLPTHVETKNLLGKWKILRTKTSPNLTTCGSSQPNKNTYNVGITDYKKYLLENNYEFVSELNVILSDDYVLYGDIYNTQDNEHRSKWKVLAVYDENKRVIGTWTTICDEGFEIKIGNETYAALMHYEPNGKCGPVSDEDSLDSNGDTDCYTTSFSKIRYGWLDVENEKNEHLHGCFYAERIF
T1 sequence (Q8IIJ9 600-700 limits assumed): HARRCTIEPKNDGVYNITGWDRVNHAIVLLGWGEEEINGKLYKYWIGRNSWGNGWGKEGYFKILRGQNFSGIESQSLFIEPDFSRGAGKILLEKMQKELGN
The assay is described as follows: biochemical. Format: biochemical. The note with it: for DPAP Primary hit (Hit = 1): 10 μM HTS, 0 not defined; for inhibition at 10 µM: 10 μM compound, parasite lysates, (PR)2Rho, 30 min end-point, read-out: DPAP1 % Inhibition @ 10 uM.

With `COc1ccc(C2CC(=O)N3CN(Cc4ccccc4)CSC3=C2C#N)cc1OC` (centres unmarked) [SMDC170071, COc1ccc(cc1OC)C2CC(=O)N3CN(Cc4ccccc4)CSC3=C2C#N], the “DPAP Primary hit (Hit = 1)” value was determined as 0 and the inhibition at 10 µM was determined as 7%.

With `N#CC1=C2SCN(Cc3ccco3)CN2C(=O)CC1c1ccc(Cl)cc1` (centres unmarked) [SMDC170081, Clc1ccc(cc1)C2CC(=O)N3CN(Cc4occc4)CSC3=C2C#N], the “DPAP Primary hit (Hit = 1)” value was determined as 0 and the inhibition at 10 µM stood at 42%.

As to `N#CC1=C2SCN(Cc3ccccc3)CN2C(=O)CC1c1ccc(Cl)cc1` (centres unmarked) [SMDC170091, Clc1ccc(cc1)C2CC(=O)N3CN(Cc4ccccc4)CSC3=C2C#N], the “DPAP Primary hit (Hit = 1)” value worked out at 0 and the inhibition at 10 µM worked out at 42%.

With `Cc1ccc(C2CC(=O)N3CN(C4CCCCC4)CSC3=C2C#N)cc1` (centres unmarked) [SMDC170101, Cc1ccc(cc1)C2CC(=O)N3CN(CSC3=C2C#N)C4CCCCC4], the “DPAP Primary hit (Hit = 1)” value is 0 and the inhibition at 10 µM is 26%.

`Cc1ccccc1C1CC(=O)N2CN(Cc3ccco3)CSC2=C1C#N` (centres unmarked) [SMDC170102, Cc1ccccc1C2CC(=O)N3CN(Cc4occc4)CSC3=C2C#N]: the “DPAP Primary hit (Hit = 1)” value amounted to 0 and the inhibition at 10 µM was 26%.

Take `CCc1ccc(C2CC(=O)N3CN(C4CCCCC4)CSC3=C2C#N)cc1` (centres unmarked) [SMDC170103, CCc1ccc(cc1)C2CC(=O)N3CN(CSC3=C2C#N)C4CCCCC4]: the “DPAP Primary hit (Hit = 1)” value turned out to be 1 and the inhibition at 10 µM worked out at 65%.

In the case of `CCOc1ccc(C2CC(=O)N3CN(C)CSC3=C2C#N)cc1OC` (centres unmarked) [SMDC170104, CCOc1ccc(cc1OC)C2CC(=O)N3CN(C)CSC3=C2C#N], the “DPAP Primary hit (Hit = 1)” value is given as 0 and the inhibition at 10 µM worked out at 48%.

Turning to `N#CC1=C2SCN(Cc3ccccc3)CN2C(=O)CC1c1cccs1` (centres unmarked) [SMDC170105, O=C1CC(C(=C2SCN(Cc3ccccc3)CN12)C#N)c4cccs4], the “DPAP Primary hit (Hit = 1)” value is 0 and the inhibition at 10 µM worked out at 41%.

Turning to `COc1ccc2ccccc2c1C1CC(=O)N2CN(Cc3ccccc3)CSC2=C1C#N` (centres unmarked) [SMDC170106, COc1ccc2ccccc2c1C3CC(=O)N4CN(Cc5ccccc5)CSC4=C3C#N], the “DPAP Primary hit (Hit = 1)” value is 0 and the inhibition at 10 µM turned out to be 36%.

As for `Cc1ccccc1C1CC(=O)N2CN(C3CCCCC3)CSC2=C1C#N` (centres unmarked) [SMDC170112, Cc1ccccc1C2CC(=O)N3CN(CSC3=C2C#N)C4CCCCC4], the “DPAP Primary hit (Hit = 1)” value worked out at 0 and the inhibition at 10 µM came out at 24%.

As for `CCc1ccc(C2CC(=O)N3CN(Cc4ccccc4)CSC3=C2C#N)cc1` (centres unmarked) [SMDC170113, CCc1ccc(cc1)C2CC(=O)N3CN(Cc4ccccc4)CSC3=C2C#N], the “DPAP Primary hit (Hit = 1)” value is on record as 0 and the inhibition at 10 µM came out at 39%.

`CN1CSC2=C(C#N)C(c3ccccc3)CC(=O)N2C1` (centres unmarked) [SMDC170114, CN1CSC2=C(C#N)C(CC(=O)N2C1)c3ccccc3]: the “DPAP Primary hit (Hit = 1)” value worked out at 0 and the inhibition at 10 µM was found to be 33%.

On to `CN1CSC2=C(C#N)C(c3ccc(Br)cc3)CC(=O)N2C1` (centres unmarked) [SMDC170115, CN1CSC2=C(C#N)C(CC(=O)N2C1)c3ccc(Br)cc3], for which the “DPAP Primary hit (Hit = 1)” value was 0 and the inhibition at 10 µM was 43%.

As for `COc1ccc2ccccc2c1C1CC(=O)N2CN(C3CCCCC3)CSC2=C1C#N` (centres unmarked) [SMDC170116, COc1ccc2ccccc2c1C3CC(=O)N4CN(CSC4=C3C#N)C5CCCCC5], the “DPAP Primary hit (Hit = 1)” value worked out at 0 and the inhibition at 10 µM came out at 27%.

Consider `Cc1ccccc1C1CC(=O)N2CN(Cc3ccccc3)CSC2=C1C#N` (centres unmarked) [SMDC170122, Cc1ccccc1C2CC(=O)N3CN(Cc4ccccc4)CSC3=C2C#N], for which the “DPAP Primary hit (Hit = 1)” value turned out to be 0 and the inhibition at 10 µM came to 31%.

`CSc1ccc(C2CC(=O)N3CN(C)CSC3=C2C#N)cc1` (centres unmarked) [SMDC170124, CSc1ccc(cc1)C2CC(=O)N3CN(C)CSC3=C2C#N]: the “DPAP Primary hit (Hit = 1)” value turned out to be 1 and the inhibition at 10 µM amounted to 75%.

On to `COc1ccc(Br)cc1C1CC(=O)N2CN(Cc3ccco3)CSC2=C1C#N` (centres unmarked) [SMDC170125, COc1ccc(Br)cc1C2CC(=O)N3CN(Cc4occc4)CSC3=C2C#N], for which the “DPAP Primary hit (Hit = 1)” value is on record as 1 and the inhibition at 10 µM was determined as 61%.

On to `CN1CSC2=C(C#N)C(c3cccc(OCc4ccccc4)c3)CC(=O)N2C1` (centres unmarked) [SMDC170126, CN1CSC2=C(C#N)C(CC(=O)N2C1)c3cccc(OCc4ccccc4)c3], for which the “DPAP Primary hit (Hit = 1)” value is 1 and the inhibition at 10 µM was determined as 71%.

Regarding `N#CC1=C2SCN(C3CCCCC3)CN2C(=O)CC1c1ccccc1F` (centres unmarked) [SMDC170132, Fc1ccccc1C2CC(=O)N3CN(CSC3=C2C#N)C4CCCCC4], the “DPAP Primary hit (Hit = 1)” value is 0 and the inhibition at 10 µM was found to be 38%.

As for `COc1ccc(OC)c(C2CC(=O)N3CN(Cc4ccco4)CSC3=C2C#N)c1` (centres unmarked) [SMDC170133, COc1ccc(OC)c(c1)C2CC(=O)N3CN(Cc4occc4)CSC3=C2C#N], the “DPAP Primary hit (Hit = 1)” value is 0 and the inhibition at 10 µM was 7%.

For the compound `COc1cccc(C2CC(=O)N3CN(Cc4ccco4)CSC3=C2C#N)c1OC` (centres unmarked) [SMDC170134, COc1cccc(C2CC(=O)N3CN(Cc4occc4)CSC3=C2C#N)c1OC], the “DPAP Primary hit (Hit = 1)” value is given as 0 and the inhibition at 10 µM was 19%.

Regarding `COc1ccc(Br)cc1C1CC(=O)N2CN(C3CCCCC3)CSC2=C1C#N` (centres unmarked) [SMDC170135, COc1ccc(Br)cc1C2CC(=O)N3CN(CSC3=C2C#N)C4CCCCC4], the “DPAP Primary hit (Hit = 1)” value turned out to be 1 and the inhibition at 10 µM stood at 60%.

As to `CCOc1ccc(C2CC(=O)N3CN(Cc4ccco4)CSC3=C2C#N)cc1` (centres unmarked) [SMDC170142, CCOc1ccc(cc1)C2CC(=O)N3CN(Cc4occc4)CSC3=C2C#N], the “DPAP Primary hit (Hit = 1)” value was determined as 0 and the inhibition at 10 µM was 43%.

For `COc1ccc(OC)c(C2CC(=O)N3CN(C4CCCCC4)CSC3=C2C#N)c1` (centres unmarked) [SMDC170143, COc1ccc(OC)c(c1)C2CC(=O)N3CN(CSC3=C2C#N)C4CCCCC4], the “DPAP Primary hit (Hit = 1)” value is listed as 0 and the inhibition at 10 µM was 10%.

Regarding `COc1cccc(C2CC(=O)N3CN(C4CCCCC4)CSC3=C2C#N)c1OC` (centres unmarked) [SMDC170144, COc1cccc(C2CC(=O)N3CN(CSC3=C2C#N)C4CCCCC4)c1OC], the “DPAP Primary hit (Hit = 1)” value is 0 and the inhibition at 10 µM turned out to be 22%.

For the compound `COc1ccc(Br)cc1C1CC(=O)N2CN(C)CSC2=C1C#N` (centres unmarked) [SMDC170145, COc1ccc(Br)cc1C2CC(=O)N3CN(C)CSC3=C2C#N], the “DPAP Primary hit (Hit = 1)” value is 1 and the inhibition at 10 µM was found to be 59%.

On to `COc1cc(C2CC(=O)N3CN(Cc4ccccc4)CSC3=C2C#N)cc(Br)c1O` (centres unmarked) [SMDC170146, COc1cc(cc(Br)c1O)C2CC(=O)N3CN(Cc4ccccc4)CSC3=C2C#N], for which the “DPAP Primary hit (Hit = 1)” value was 1 and the inhibition at 10 µM turned out to be 57%.

For the compound `CCOc1ccc(C2CC(=O)N3CN(C4CCCCC4)CSC3=C2C#N)cc1` (centres unmarked) [SMDC170152, CCOc1ccc(cc1)C2CC(=O)N3CN(CSC3=C2C#N)C4CCCCC4], the “DPAP Primary hit (Hit = 1)” value was 0 and the inhibition at 10 µM worked out at 47%.

As to `COc1cc(C2CC(=O)N3CN(Cc4ccco4)CSC3=C2C#N)ccc1O` (centres unmarked) [SMDC170153, COc1cc(ccc1O)C2CC(=O)N3CN(Cc4occc4)CSC3=C2C#N], the “DPAP Primary hit (Hit = 1)” value is reported as 0 and the inhibition at 10 µM came to 18%.

`COc1ccc(C2CC(=O)N3CN(Cc4ccccc4)CSC3=C2C#N)c(OC)c1` (centres unmarked) [SMDC170154, COc1ccc(C2CC(=O)N3CN(Cc4ccccc4)CSC3=C2C#N)c(OC)c1]: the “DPAP Primary hit (Hit = 1)” value is 0 and the inhibition at 10 µM was determined as 32%.

As to `COc1ccc(Br)cc1C1CC(=O)N2CN(Cc3ccccc3)CSC2=C1C#N` (centres unmarked) [SMDC170155, COc1ccc(Br)cc1C2CC(=O)N3CN(Cc4ccccc4)CSC3=C2C#N], the “DPAP Primary hit (Hit = 1)” value stood at 1 and the inhibition at 10 µM amounted to 61%.

For `CCOc1ccc(C2CC(=O)N3CN(Cc4ccccc4)CSC3=C2C#N)cc1` (centres unmarked) [SMDC170162, CCOc1ccc(cc1)C2CC(=O)N3CN(Cc4ccccc4)CSC3=C2C#N], the “DPAP Primary hit (Hit = 1)” value is on record as 0 and the inhibition at 10 µM was found to be 49%.

For `COc1cc(C2CC(=O)N3CN(C4CCCCC4)CSC3=C2C#N)ccc1O` (centres unmarked) [SMDC170163, COc1cc(ccc1O)C2CC(=O)N3CN(CSC3=C2C#N)C4CCCCC4], the “DPAP Primary hit (Hit = 1)” value turned out to be 0 and the inhibition at 10 µM is -1%.

For the compound `COc1cc(C2CC(=O)N3CN(C4CCCCC4)CSC3=C2C#N)cc(OC)c1OC` (centres unmarked) [SMDC170164, COc1cc(cc(OC)c1OC)C2CC(=O)N3CN(CSC3=C2C#N)C4CCCCC4], the “DPAP Primary hit (Hit = 1)” value was 0 and the inhibition at 10 µM came out at 2%.

With `COc1ccc2ccccc2c1C1CC(=O)N2CN(Cc3ccco3)CSC2=C1C#N` (centres unmarked) [SMDC170165, COc1ccc2ccccc2c1C3CC(=O)N4CN(Cc5occc5)CSC4=C3C#N], the “DPAP Primary hit (Hit = 1)” value stood at 0 and the inhibition at 10 µM was found to be 31%.

Consider `N#CC1=C2SCN(Cc3ccccc3)CN2C(=O)CC1c1cccc2ccccc12` (centres unmarked) [SMDC170166, O=C1CC(C(=C2SCN(Cc3ccccc3)CN12)C#N)c4cccc5ccccc45], for which the “DPAP Primary hit (Hit = 1)” value is listed as 1 and the inhibition at 10 µM was 52%.

`CCc1ccc(C2CC(=O)N3CN(Cc4ccco4)CSC3=C2C#N)cc1` (centres unmarked) [SMDC170172, CCc1ccc(cc1)C2CC(=O)N3CN(Cc4occc4)CSC3=C2C#N]: the “DPAP Primary hit (Hit = 1)” value was 0 and the inhibition at 10 µM is 34%.

The term inhibition denotes the change of the read-out against control, counted positive when it falls.
